These molecules were tested against GST tagged truncated human mutant G2019S LRRK2 (Homo sapiens (Human), UniProt Q5S007, G2019S) (assay: LRRK2 Km ATP LanthaScreen Assay). Conditions: G2019S LRRK2, 134 μM ATP (Km ATP), mean values.
Sequence of GST tagged truncated human mutant G2019S LRRK2 (Q5S007 970-2527 G2019S): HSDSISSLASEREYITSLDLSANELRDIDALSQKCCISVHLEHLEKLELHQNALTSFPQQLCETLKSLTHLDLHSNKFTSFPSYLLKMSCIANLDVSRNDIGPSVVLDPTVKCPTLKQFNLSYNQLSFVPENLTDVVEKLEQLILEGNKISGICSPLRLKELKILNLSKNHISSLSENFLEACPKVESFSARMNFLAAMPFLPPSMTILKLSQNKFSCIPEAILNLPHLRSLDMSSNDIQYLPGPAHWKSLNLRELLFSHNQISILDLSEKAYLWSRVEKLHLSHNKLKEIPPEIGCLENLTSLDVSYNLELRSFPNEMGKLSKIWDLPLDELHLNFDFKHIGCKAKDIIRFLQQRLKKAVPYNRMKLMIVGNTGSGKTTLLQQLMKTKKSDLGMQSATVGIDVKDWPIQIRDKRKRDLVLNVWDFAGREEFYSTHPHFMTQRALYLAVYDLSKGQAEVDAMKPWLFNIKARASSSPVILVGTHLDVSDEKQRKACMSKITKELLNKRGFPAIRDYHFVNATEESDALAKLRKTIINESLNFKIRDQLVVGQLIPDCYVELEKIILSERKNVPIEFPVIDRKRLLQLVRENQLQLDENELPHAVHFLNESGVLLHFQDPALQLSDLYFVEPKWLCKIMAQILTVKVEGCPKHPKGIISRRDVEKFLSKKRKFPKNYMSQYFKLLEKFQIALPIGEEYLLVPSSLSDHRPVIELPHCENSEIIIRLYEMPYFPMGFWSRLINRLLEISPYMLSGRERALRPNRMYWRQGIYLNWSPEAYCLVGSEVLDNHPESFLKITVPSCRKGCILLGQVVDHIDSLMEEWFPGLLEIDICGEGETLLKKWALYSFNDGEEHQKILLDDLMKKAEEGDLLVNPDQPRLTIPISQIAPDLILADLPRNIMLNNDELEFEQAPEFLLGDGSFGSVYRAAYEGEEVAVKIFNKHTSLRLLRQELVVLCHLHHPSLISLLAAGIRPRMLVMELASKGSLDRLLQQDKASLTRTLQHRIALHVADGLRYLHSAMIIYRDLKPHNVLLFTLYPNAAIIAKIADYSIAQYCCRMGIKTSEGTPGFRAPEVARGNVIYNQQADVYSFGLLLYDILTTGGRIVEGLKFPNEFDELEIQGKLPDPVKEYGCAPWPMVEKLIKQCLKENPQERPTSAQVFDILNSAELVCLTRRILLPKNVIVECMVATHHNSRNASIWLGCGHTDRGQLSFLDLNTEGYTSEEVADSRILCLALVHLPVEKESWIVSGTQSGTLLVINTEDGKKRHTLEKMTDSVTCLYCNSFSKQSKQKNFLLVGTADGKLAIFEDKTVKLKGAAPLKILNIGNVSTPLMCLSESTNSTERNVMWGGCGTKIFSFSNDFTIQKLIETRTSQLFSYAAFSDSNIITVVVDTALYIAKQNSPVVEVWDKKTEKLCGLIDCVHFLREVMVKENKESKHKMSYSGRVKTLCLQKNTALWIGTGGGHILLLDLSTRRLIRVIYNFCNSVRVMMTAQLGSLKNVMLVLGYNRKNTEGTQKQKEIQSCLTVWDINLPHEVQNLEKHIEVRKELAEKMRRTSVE
Format: biochemical
Outline: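 Enzyme (GST-tagged, truncated) was preincubated with compound for 15 min at RT in 50 mM Tris pH 8.5, 10 mM MgCl2, 0.01% Brij-35, 1 mM EGTA, 2 mM DTT and 0.05 mM orthovanadate. Fluorescein-LRRKtide and 134 μM ATP (Km) were then added for 90 min. EDTA and Tb-anti-pERM antibody stopped the reaction; the TR-FRET 520/495 ratio gave 4-parameter IC50s, reported as mean pIC50.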
For `Cc1cc2cnc(Nc3cnn(CC(C)(C)O)c3Cl)nc2cc1[C@H]1CCN(C2COC2)C[C@@H]1F` (single isomer, unassigned) [Ex-4.83, (3S,4S) or (3R,4R) 1-[5-chloro-4-({7-[3-fluoro-1-(oxetan-3-yl)piperidin-4-yl]-6-methylquinazolin-2-yl}amino)-1H-pyrazol-1-yl]-2-methylpropan-2-ol], the “LRRK2 pIC50” value was 9.14. With `CC1OCC1N1CCC(c2cc3nc(Nc4cnn(C5CC5)c4Cl)ncc3cc2Cl)CC1` (single isomer, unassigned) [Ex-4.46, (2R,3R) or (2S,3S) or (2S,3R) or (2R,3S) 6-chloro-N-(5-chloro-1-cyclopropyl-1H-pyrazol-4-yl)-7-[1-(2-methyloxetan-3-yl)piperidin-4-yl]quinazolin-2-amine] the “LRRK2 pIC50” value was 9.13. With `Cc1cc2cnc(Nc3cnn(CC(C)(C)O)c3Cl)nc2cc1C1CCN(C2COC2)CC1` [Ex-4.80, 1-[5-chloro-4-({6-methyl-7-[1-(oxetan-3-yl)piperidin-4-yl]quinazolin-2-yl}amino)-1H-pyrazol-1-yl]-2-methylpropan-2-ol] the “LRRK2 pIC50” value was 8.87. With `Cc1cc2cnc(Nc3cnn(C45CC(C4)C5)c3C)nc2cc1[C@@H]1CCN([C@H]2COC[C@H]2O)C[C@H]1F` (single isomer, unassigned) [Ex-4.164, (3S,4S)(3S,4S) or (3S,4S)(3R,4R) or (3R,4R)(3S,4S) or (3R,4R)(3R,4R) 4-[4-(2-{[1-(bicyclo[1.1.1]pentan-1-yl)-5-methyl-1H-pyrazol-4-yl]amino}-6-methylquinazolin-7-yl)-3-fluoropiperidin-1-yl]oxolan-3-ol] the “LRRK2 pIC50” value was >9.20. With `Cc1cc(Nc2ncc3cc(C)c(C4CCN([C@]5(C)COC[C@@H]5O)CC4)cc3n2)n(C)n1` (single isomer, unassigned) [Ex-5.13, (3S,4S)(3S,4S) or (3S,4S)(3R,4R) or (3R,4R)(3S,4S) or (3R,4R)(3R,4R) 4-(4-{2-[(1,3-dimethyl-1H-pyrazol-5-yl)amino]-6-methylquinazolin-7-yl}piperidin-1-yl)-4-methyloxolan-3-ol] the “LRRK2 pIC50” value was 9.00. In the case of `Cc1cc2cnc(Nc3cnn(C4CC4)c3C)nc2cc1[C@@H]1CCN(C2COC2)C[C@H]1F` (single isomer, unassigned) [Ex-5.3, (3S,4S) or (3R,4R) N-(1-cyclopropyl-5-methyl-1H-pyrazol-4-yl)-7-[3-fluoro-1-(oxetan-3-yl)piperidin-4-yl]-6-methylquinazolin-2-amine], the “LRRK2 pIC50” value is reported as 8.96. `Cc1cc(Nc2ncc3cc(Cl)c(C4CCN(C5COCC5O)CC4F)cc3n2)n(C)n1` (single isomer, unassigned) [Ex-4.235, (3S,4S)(3S,4S) or (3S,4S)(3R,4R) or (3R,4R)(3S,4S) or (3R,4R)(3R,4R) 4-(4-{6-chloro-2-[(1,3-dimethyl-1H-pyrazol-5-yl)amino]quinazolin-7-yl}-3-fluoropiperidin-1-yl)oxolan-3-ol] was tested, and the “LRRK2 pIC50” value was 8.84. In the case of `Cc1c(Nc2ncc3cc(Cl)c(C4CCN(C[C@H](O)c5ccc(F)cc5F)CC4)cc3n2)cnn1C1CC1` [Ex-4.201, (1R)-2-(4-{6-chloro-2-[(1-cyclopropyl-5-methyl-1H-pyrazol-4-yl)amino]quinazolin-7-yl}piperidin-1-yl)-1-(2,4-difluorophenyl)ethan-1-ol], the “LRRK2 pIC50” value is reported as 8.19. In the case of `Cc1nn(C)c(Nc2ncc3cc(Cl)c(C4CCN([C@]5(C)COC[C@@H]5O)CC4)cc3n2)c1C#N` (single isomer, unassigned) [Ex-2.86, (3S,4S) or (3R,4R) 5-({6-chloro-7-[1-(4-hydroxy-3-methyloxolan-3-yl)piperidin-4-yl]quinazolin-2-yl}amino)-l,3-dimethyl-1H-pyrazole-4-carbonitrile], the “LRRK2 pIC50” value is reported as 8.05.

Same assay, conditions: G2019S LRRK2, 134 μM ATP (Km ATP), mean values; read-out: LRRK2 pIC50 (converted)
Work on `N#Cc1cc2cnc(Nc3cnn(C4CC4)c3Cl)nc2cc1[C@H]1CCN(C2COC2)C[C@@H]1F` (single isomer, unassigned) [Ex-6.1, (3R,4R) or (3S,4S) 2-((5-chloro-1-cyclopropyl-1H-pyrazol-4-yl)amino)-7-(3-fluoro-1-(oxetan-3-yl)piperidin-4-yl)quinazoline-6-carbonitrile] yielded an IC50 of 1.91 nM. `Cc1c(Nc2ncc3cc(Cl)c(C4CCN(CC(O)c5ccc(C#N)cc5)CC4)cc3n2)cnn1C1CC1` (single isomer, unassigned) [Ex-4.226, (S) or (R) 4-[2-(4-{6-chloro-2-[(1-cyclopropyl-5-methyl-1H-pyrazol-4-yl)amino]quinazolin-7-yl}piperidin-1-yl)-1-hydroxyethyl]benzonitrile] showed an IC50 of 3.72 nM.

— patent US12540131B2 (Merck Sharp & Dohme LLC, priority 2019, dated 2026)
